Reference: publication PMC3907505, “The Mechanism of Intralipid®-Mediated Cardioprotection Complex IV Inhibition by the Active Metabolite, Palmitoylcarnitine, Generates Reactive Oxygen Species and Activates Reperfusion Injury Salvage Kinases” (PLoS ONE, 2014)

Target: T1, Complex IV (cytochrome c oxidase) (Rattus norvegicus, UniProt P00406+P05503)
T1 construct: gene Mt-co1; native complex in saponin-permeabilized left ventricular (apex) cardiac fibers; dimer of 13 subunits per monomer; with Cytochrome c oxidase subunit 3; Cytochrome c oxidase subunit 4 isoform 1, mitochondrial; Cytochrome c oxidase subunit 5A, mitochondrial; Cytochrome c oxidase subunit 5B, mitochondrial; Cytochrome c oxidase subunit 6A2, mitochondrial; Cytochrome c oxidase subunit 6B1; Cytochrome c oxidase subunit 6C; Cytochrome c oxidase subunit 7A1, mitochondrial; Cytochrome c oxidase subunit 7B, mitochondrial; Cytochrome c oxidase subunit 7C, mitochondrial; Cytochrome c oxidase subunit 8B, mitochondrial
Test: high-resolution respirometry (O2 consumption), permeabilized cardiac fibers
Type: biochemical
Details: ascorbate 2 mM/TMPD 0.5 mM as complex IV substrates, pH 7.1, 30°C, 1 g/l BSA in medium
Description: high-resolution respirometry (O2 consumption), permeabilized cardiac fibers on Complex IV (cytochrome c oxidase)

Work on `CCCCC/C=C\C/C=C\CCCCCCCC(=O)O[C@H](CC(=O)[O-])C[N+](C)(C)C` [C18∶2c, cis,cis-9,12-octadecadienoyl-L-carnitine] yielded an IC50 (Hillslope −1.58) of 65.6 µM.
Work on `CCCCCCCCCCCCCCCC(=O)O[C@H](CC(=O)[O-])C[N+](C)(C)C` [C16∶0c, Palmitoylcarnitine] yielded an IC50 (Hillslope −0.86) of 72.3 µM.
